*1 amine or outer side, *2 acyl side, *3 side chain or, on linkers, in order; H or OH if unused. Where a SMILES comes first, the peptide text is derived from it. Bridges are numbered along the chain shown (N, C = ends). Roman numbers before positions name the chains, in order. [ ]: non-standard residue; d: D form. Actinocin(9to1) = Cc1c2oc3c(C)ccc(C(=O)[*:1])c3nc-2c(C(=O)[*:2])c(N)c1=O; NMeV = CN[C@H](C(=O)O)C(C)C; d = 2'-deoxy (DNA); Sar = CNCC(=O)O; r = 2'-OH (RNA)
Experiments:
MUC1 = MUC1 siRNA knockdown of MUC1 expression in primary NHBE cells (immunoblot, FACS); type: cell-based, human; conditions: 1.5 μg siRNA, vs control RNA
Procedure: (§1) Primary NHBE cells were nucleofected with 1.5 μg of a MUC1 siRNA or a non-targeting control RNA. At 48 h post-nucleofection, total MUC1 protein was determined by immunoblotting as described (20) (A) and cell surface MUC1 was determined by FACS analysis using anti-MUC1 (GP1.4, mouse IgG1, κ, Biomeda) as primary antibody and R-Phycoerythrin-conjugated goat anti-mouse IgG (Santa Cruz) as secondary antibody. Mouse IgG1 (κ isotype, eBioscience) was used as primary antibody to determine threshold fluorescence signal. (B). (C) Cells were stimulated with 10 ng/ml of flagellin for 6 h and IL-8 levels in basolateral medium were measured.
Macrophages were harvested from BALF or the peritoneal space, and erythrocytes lysed with 10 mM Tris-HCl, pH 7.2 containing 150 mM NH4Cl. Peritoneal macrophages (PM) were harvested after treating mice i.p. with 3% thioglycollate for 3 days. The recovered cells consisted of >95% macrophages as determined by immunofluorescence using the F4/80 macrophage marker (eBioscience). Cells were seeded in 24-well tissue culture plates at 1.0×10^5 cells/well in DMEM containing 10% FBS, […], and allowed to adhere for 24 h before flagellin or LPS (PA10, Sigma) treatment. […]

[1] = system: ELAM-1 promoter activity in A549 lung carcinoma cells; experiment: ELAM-1 promoter-luciferase assay in A549 cells after MUC1 siRNA transfection; type: cell-based, human; conditions: 8.0 nM siRNA 24 h, 10 ng/ml flagellin 6 h
Procedure: To assess the effects of endogenous MUC1 expression on NF-κB activation, ELAM-1 promoter activity in A549 lung carcinoma cells following transfection with MUC1 with small interfering RNA (siRNA) duplexes was measured. Inhibition of MUC1 expression was confirmed by FACS analysis following treatment with the MUC1 siRNA but not a control RNA (data not shown).
Referring now to FIG. 3, twenty four hours after transfection with the control RNA or MUC1 siRNA, A549 cells were treated with 10 ng/ml of flagellin or an equivalent amount of the fliC control for 6 hours. Cell lysates were prepared and luciferase activity measured as indicated in the examples section. […]
HEK293T and A549 cells were seeded in 24-well plates at 2×10^5 and 5×10^4 cells/well respectively, incubated overnight, and transfected with the 0.4 μg/well of the NF-κB responsive pELAM-1 promoter-luciferase plasmid and 10 ng/well of the phRL-TK plasmid (Promega) as an internal control using 2 μl/well of Lipofectamine™2000 (Invitrogen) according to the manufacturer's instructions. The cells were incubated for 24 h at 37° C. in 5% CO2, treated with 10 ng/ml PAK flagellin or an equivalent volume of the fliC negative control for 6 h, and relative luciferase activity determined. […] Data are expressed as mean relative luciferase activity±SEM of triplicate or quadruplicate determinations.

[2] = system: IL-8 levels in primary NHBE cells; experiment: Flagellin-induced IL-8 levels in MUC1 siRNA-treated primary NHBE cells; type: cell-based, human; conditions: 10 ng/ml flagellin 6 h, basolateral medium
Procedure: as §1
Macrophages were harvested from BALF or the peritoneal space, and erythrocytes lysed with 10 mM Tris-HCl, pH 7.2 containing 150 mM NH4Cl. Peritoneal macrophages (PM) were harvested after treating mice i.p. with 3% thioglycollate for 3 days. The recovered cells consisted of >95% macrophages as determined by immunofluorescence using the F4/80 macrophage marker (eBioscience). […]
(§2) Mouse KC and TNF-α and human IL-8 were quantified by ELISA using commercially available antibodies (eBioscience; R&D Systems). All samples were analyzed in triplicate and standard curves were performed on each plate.

[3] = system: MUC1 protein in A549 cells; conditions: A549 cells, 5.0 μg/ml AcD or 10 μg/ml Chx, no NE
Procedure: Confluent A549 cells were incubated in the presence or absence of 5.0 μg/ml of actinomycin (AcD) or 10 μg/ml of cycloheximide (Chx) for 1 hr and either non-treated or treated for 24 hr with 100 nM of NE. MUC1 protein levels in cell lysates (A) and spent media (B) were measured by ELISA. Each bar represents the mean±SEM (n=3). […] (C) Aliquots of spent media obtained from confluent A549 cells were non-treated (0 hr) or treated for 24 hr with 100 nM NE or vehicle control and MUC1 levels in the spent media determined by ELISA. Each bar represents the mean±SEM (n=3).
A549 cells were seeded at 5.0×10^4 cells/well in 24-well plates in Dulbecco's Modified Eagle Medium (DMEM) containing 10% fetal bovine serum (FBS), 100 U/ml penicillin, and 100 μg/ml streptomycin (all from Invitrogen, Carlsbad, Calif.) and incubated at 37° C. in a humidified CO2 incubator. Confluent monolayers were washed with serum-free DMEM and treated with 100 nM (2.6 U/ml) NE or vehicle control (PBS) for 24 hr. In some experiments, the cells were pretreated for 1 hr with 5.0 μg/ml of actinomycin D or 10 μg/ml of cycloheximide prior to NE treatment. Following treatment, cell-conditioned media were collected, and the cells were washed with PBS and lysed with 500 μl/well of PBS containing 1.0% Triton X-100, 1.0% sodium deoxycholate, 1.0% protease inhibitor cocktail, and 2.0 mM phenylmethylsulfonyl fluoride (PMSF). Lysates and conditioned media were incubated for 20 min at 80° C. to inactivate residual NE, insoluble material removed by centrifugation at 14,000×g for 10 min at 4° C., and protein concentrations measured by the procedure of Bradford using bovine serum albumin as standard.
ELISA. A549 cell lysates or cell-conditioned culture media were centrifuged at 10,000×g for 10 min at 4° C., added in triplicate to 96-well ELISA plates (MaxiSorb™, Nalge Nunc, Rochester, N.Y.), and incubated overnight at 4° C. Wells were blocked for 1 hr at room temperature (about 22° C.) with PBS, pH 7.0, containing 10 mg/ml BSA and 50 mg/ml sucrose and washed with PBS containing 0.05% Tween 20 (PBS-T). The samples were reacted for 2 hr at room temperature with 200 μg/ml of primary MUC1 antibody (GP1.4), washed with PBS-T, reacted for 2 hr at room temperature with 200 μg/ml of secondary antibody (peroxidase-conjugated goat antimouse IgG) (KPL, Gaithersburg, Md.), and washed with PBS-T. Bound antibodies were detected with tetramethylbenzidine substrate (SureBlue™, KPL), the substrate reaction stopped with 1 N HCl, and absorbencies at 450 nm measured using a microplate spectrophotometer (Dexall, Gaithersburg, Md.).

[4] = system: MUC1 transcription (MEK/ERK signaling pathway); experiment: TNF-α induced MUC1 expression in A549 lung epithelial cells; type: cell-based, human
Description: TNF-α induces MUC1 expression through a MAP kinase pathway in human lung epithelial cells. TNF-α stimulates MUC1 transcription and protein expression in lung epithelial cells. Activation of MAP kinases and NF-κB was verified using Western blot analysis. […] TNF-α activate all three MAP kinases (ERK, p38, and JNK) as well as NF-κB. […] TNF-α stimulates MUC1 production in A549 cells through transcriptional activation via the MEK/ERK signaling pathway.

TLR5 [5] = molecular target: T1, TLR5 (Homo sapiens, UniProt O60602); experiment: cell-based or functional assay
[6] = system: ELAM-1 promoter (NF-κB activation, TLR5 signaling) in HEK293T cells; experiment: ELAM-1 promoter-luciferase reporter assay in HEK293T cells; type: cell-based, human; conditions: 10 ng/ml PAK flagellin, 6 h
Description: The relationship between TLR5 and MUC1 signaling in response to flagellin was investigated utilizing TLR5-expressing cells in the absence or presence of MUC1 expression. Initially, we screened a number of different airway and non-airway cell lines by Western blotting and/or real-time PCR with the goal of identifying a TLR5+/MUC1− host cells for transfection of the pMUC1 expression plasmid. Referring now to FIG. 1A, (A) HEK293T cells were transfected with pcDNA3.1 empty vector or the pMUC1 expression plasmid. After trypsinization, cells were reacted with normal mouse IgG or mouse anti-MUC1 antibody followed by PE-conjugated goat anti-mouse IgG antibody and examined by FACS analysis. […] Cell lysates were prepared and relative luciferase activity measured as indicated in Materials and Methods. […]
HEK293T and A549 cells were seeded in 24-well plates at 2×10^5 and 5×10^4 cells/well respectively, incubated overnight, and transfected with the 0.4 μg/well of the NF-κB responsive pELAM-1 promoter-luciferase plasmid and 10 ng/well of the phRL-TK plasmid (Promega) as an internal control using 2 μl/well of Lipofectamine™2000 (Invitrogen) according to the manufacturer's instructions. The cells were incubated for 24 h at 37° C. in 5% CO2, treated with 10 ng/ml PAK flagellin or an equivalent volume of the fliC negative control for 6 h, and relative luciferase activity determined. […]

TLR5 [7] = molecular target: T1, TLR5; experiment: Flagellin-driven IL-8 release in HEK293T cells with or without transfected TLR5; type: cell-based; set-up: V5-His (vector pEF6/V5-His); expressed in transfected cells; host or cells: HEK293T
Procedure: TLR5 mediates flagellin-stimulated innate immune responses. Because TLR5 and MUC1/Muc1 are flagellin receptors and both are expressed by airway macrophages and epithelial cells the relationship between MUC1 and TLR5 in response to flagellin in HEK293T cells stably transfected with a MUC1 expressing plasmid and flagellin-driven IL-8 release was determined following transient transfection with a TLR5 expressing plasmid. HEK293T cells express TLR5 but not MUC1. […] Flagellin-induced increase in IL-8 release was completely abolished in cells co-transfected with MUC1 and TLR5. […] HEK293T cells stably transfected with the pcDNA3.1 empty vector (A) or plasmids encoding the full-length MUC1 or MUC1-ACT (B) were transiently transfected with a TLR5 expression plasmid or empty vector. At 24 h post-transfection, the cells were treated for 6 h with 10 ng/ml of flagellin or PBS, and IL-8 levels in medium were measured. […]
as §2

T1 sequence (O60602 21-858): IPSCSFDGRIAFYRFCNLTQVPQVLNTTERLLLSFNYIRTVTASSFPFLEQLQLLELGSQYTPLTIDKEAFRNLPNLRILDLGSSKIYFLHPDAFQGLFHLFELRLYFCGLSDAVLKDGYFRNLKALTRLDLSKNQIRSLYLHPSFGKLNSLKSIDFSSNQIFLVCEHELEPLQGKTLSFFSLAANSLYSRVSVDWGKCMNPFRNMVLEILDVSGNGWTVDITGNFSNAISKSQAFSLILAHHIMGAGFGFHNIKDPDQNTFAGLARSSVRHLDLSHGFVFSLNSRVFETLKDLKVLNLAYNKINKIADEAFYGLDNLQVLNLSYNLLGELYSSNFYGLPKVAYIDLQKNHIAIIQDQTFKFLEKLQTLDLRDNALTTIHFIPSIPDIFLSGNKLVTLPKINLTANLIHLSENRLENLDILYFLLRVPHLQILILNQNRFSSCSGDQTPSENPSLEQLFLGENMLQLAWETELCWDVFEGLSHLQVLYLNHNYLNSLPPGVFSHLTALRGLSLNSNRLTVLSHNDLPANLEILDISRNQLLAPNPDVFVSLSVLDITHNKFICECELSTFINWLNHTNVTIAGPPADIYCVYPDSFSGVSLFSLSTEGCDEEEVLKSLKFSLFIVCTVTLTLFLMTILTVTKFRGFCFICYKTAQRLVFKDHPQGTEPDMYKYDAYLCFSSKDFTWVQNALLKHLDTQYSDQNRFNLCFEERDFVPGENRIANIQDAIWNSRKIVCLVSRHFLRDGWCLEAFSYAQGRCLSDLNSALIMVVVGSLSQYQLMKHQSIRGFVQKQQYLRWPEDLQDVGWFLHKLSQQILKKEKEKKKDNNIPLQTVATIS

MUC1 siRNA: 21-bp siRNA with a sequence derived from the MUC1 gene (Dharmacon); sense SEQ ID NO: 2, antisense SEQ ID NO: 3 (sense GUUCAGUGCCCAGCUCUACTT; antisense GUAGAGCUGGGCACUGAACTT; sugars from the 5' end r19 d2, backbone not given here)
decrease in the number of cells with surface MUC1 expression (MUC1; 48 h, FACS): 67%
knockdown of total cellular MUC1 expression (MUC1; 48 h post-nucleofection, immunoblot): approximately 95%
effect on flagellin-induced ELAM-1 promoter activity compared with control RNA [1]: significantly increased
greater flagellin-induced IL-8 levels compared with control RNA [2]: 50%

C[C@@H]1C[C@@H]([C@H](O)CC2CC(=O)NC(=O)C2)C(=O)[C@@H](C)C1 [Chx, cycloheximide]
effect of treatment alone on cellular MUC1 levels [3]: did not significantly affect

TNF-α
effect on MUC1 protein and mRNA levels ([4]; human lung epithelial (A549) cells): increased both MUC1 protein and mRNA levels

Cc1c2oc3c(C)ccc(C(=O)N[C@@H]4C(=O)N[C@H](C(C)C)C(=O)N5CCC[C@H]5C(=O)N(C)CC(=O)N(C)[C@@H](C(C)C)C(=O)O[C@@H]4C)c3nc-2c(C(=O)N[C@@H]2C(=O)N[C@H](C(C)C)C(=O)N3CCC[C@H]3C(=O)N(C)CC(=O)N(C)[C@@H](C(C)C)C(=O)O[C@@H]2C)c(N)c1=O [AcD, actinomycin D] (I: T[dV]P[Sar][NMeV] / II: T[dV]P[Sar][NMeV]; ester I:1-I:C, II:1-II:C; linker I:N-II:N via Actinocin(9to1))
effect of treatment alone on cellular MUC1 levels [3]: did not significantly affect

P. aeruginosa strain K (PAK) flagellin (from UniProt P21184 2-394) (ligand)
IL-8 release (HEK293T cells transfected with empty vector, endogenous TLR5; 10 ng/ml flagellin for 6 h vs PBS) (TLR5 [5]): 55 % increase
IL-8 release (HEK293T cells transiently transfected with TLR5 expression plasmid; 10 ng/ml flagellin for 6 h vs PBS) (TLR5 [5]): 164 % increase
relative luciferase activity (ELAM-1 promoter-luciferase reporter, HEK293T cells, 10 ng/ml flagellin vs fliC negative control) (TLR5 [5]): 10 fold

N#CC(=C(/N)Sc1ccccc1N)/C(C#N)=C(\N)Sc1ccccc1N [U0126]
effect on TNF-α induced MUC1 transcription ([4]; A549 cells, pretreatment with U0126): completely blocked

B1: PAK flagellin: P. aeruginosa strain K flagellin purified by differential centrifugation, single 50 kDa protein band (protein)
chain: ALTVNTNIASLNTQRNLNNSSASLNTSLQRLSTGSRINSAKDDAAGLQIANRLTSQVNGLNVATKNANDGISLAQTAEGALQQSTNILQRMRDLSLQSANGSNSDSERTALNGEVKQLQKELDRISNTTTFGGRKLLDGSFGVASFQVGSAANEIISVGIDEMSAESLNGTYFKADGGGAVTAATASGTVDIAIGITGGSAVNVKVDMKGNETAEQAAAKIAAAVNDANVGIGAFSDGDTISYVSKAGKDGSGAITSAVSGVVIADTGSTGVGTAAGVTPSATAFAKTNDTVAKIDISTAKGAQSAVLVIDEAIKQIDAQRADLGAVQNRFDNTINNLKNIGENVSAARGRIEDTDFAAETANLTKNQVLQQAGTAILAQANQLPQSVLSLLR
increase in relative luciferase activity (ELAM-1 promoter) compared with fliC negative control [6]: greater than 10 fold
increase in IL-8 release compared with PBS treatment (TLR5 [7]; HEK293T cells transfected with TLR5, 10 ng/ml flagellin 6 h): 164%
increase in IL-8 release compared with PBS treatment (TLR5 [7]; HEK293T cells transfected with empty vector, 10 ng/ml flagellin 6 h): 55%
